From patent US11512053B2, “Arginine methyltransferase inhibitors and uses thereof” (priority 2013, dated 2022)
pIC50: −log10 of the molar value.

Molecular target: full-length human PRMT8 isoform 1 (Homo sapiens, UniProt Q9NR22)
Assay: PRMT8 Biochemical Assay (3H-SAM Flashplate, peptide substrate)
Conditions: single experiment or average of multiple experiments; read-out: Biochemical IC50 PRMT8
Method in brief: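 Scintillation Flashplate capture of biotinylated histone H4 (31-45) peptide (150 nM) methylated by 1.5 nM PRMT8 using 3H-SAM (50 nM) with unlabelled SAM (550 nM); enzyme and compound preincubated 30 min, room temperature, in Bicine pH 7.6 buffer with TCEP, BSG, Tween 20 and 2% DMSO. Stopped with excess cold SAM (400 uM); IC50 from % inhibition, min control 1 mM SAH.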

Sequence of full-length human PRMT8 isoform 1 (Q9NR22 whole entry, canonical isoform): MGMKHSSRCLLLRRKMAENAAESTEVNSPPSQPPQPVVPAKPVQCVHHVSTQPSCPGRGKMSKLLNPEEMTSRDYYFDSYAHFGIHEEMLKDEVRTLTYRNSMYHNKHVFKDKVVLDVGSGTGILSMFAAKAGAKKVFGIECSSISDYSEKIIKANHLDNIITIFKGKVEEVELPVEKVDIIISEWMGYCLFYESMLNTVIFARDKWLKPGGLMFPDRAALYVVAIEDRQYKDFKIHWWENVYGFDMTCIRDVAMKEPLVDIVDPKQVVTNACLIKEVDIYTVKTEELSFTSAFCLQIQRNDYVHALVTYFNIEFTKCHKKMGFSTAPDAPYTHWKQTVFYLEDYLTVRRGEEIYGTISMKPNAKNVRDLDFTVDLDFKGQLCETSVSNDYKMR

pIC50: 6.02
Compound: CNCCN(C)Cc1c[nH]nc1C#Cc1ccccc1 [Compound 3]
